Here are results for 13 molecules from patent publication US10954305B2 (Immunomedics, Inc., priority 2016, dated 2021).

One series has as its system NCI-N87-S120. Kind of series: in vitro cytotoxicity, MTS (Table 14). To be noted: for effect on SN-38 toxicity in S-120 cells: both S-120 cells, in vitro; for reversal of SN-38 resistance vs Ko143 and YHO-13351: limited studies. It counts as cell-based, human. Here is the method: (§1) Each cell line was maintained according to the recommendations of ATCC and routinely tested for mycoplasma using MYCOALERT™ mycoplasma detection kits (Lonza). The two SN-38-resistant cell lines, MDA-MB-231-5120 and NCI-N87-S120, were established by continuous exposure of the parental cells to stepwise increased concentrations of SN-38 from 6 pM to 120 nM over a period of approximately 2 years. In addition, a revertant cell line (NCI-N87-S120-REV) was obtained after culturing NCI-N87-S120 in SN-38-free medium for 4 months. The S-120 clones were maintained in medium containing 120 nM of SN-38, but cultured in drug-free medium for 7 to 14 days prior to any experiment. All cells were grown at 37° C. as monolayer cultures in a humidified atmosphere of 5% CO2.
(§2) In Vitro cytotoxicity. […] Briefly, cells were placed into wells of 96-well plates. […] From these working solutions, serial 5-fold dilutions were made in sterile media to yield final concentrations between 500 and 0.0064 nM in test wells. […] Cytotoxicity was measured as a percent of growth relative to untreated cells. Dose-response curves were generated from the mean of triplicate determinations, and IC50 values were calculated using GraphPad Prism Software V 6.05 (Advanced Graphics Software).
(§3) The effect of ABCG2 inhibitors on the IC50 values of SN-38 for the parental and resistant cell lines was determined from the respective dose-response curves obtained for SN-38 in the presence of a non-toxic concentration of ABCG2 inhibitors.

Another series addresses ABCG2 (Homo sapiens, UniProt Q9UNQ0). Particulars: S-120 cells, FTC 10 μM.
The subject of a further series is NCI-N87. Kind of series: in vitro cytotoxicity, MTS (Table 14). Type of series: cell-based. Particulars: Homo sapiens, YHO-13351 2 μM, Ko143 1 μM where added. The procedure: as §1
In Vitro cytotoxicity. […] Briefly, cells were placed into wells of 96-well plates. […] Cytotoxicity was measured as a percent of growth relative to untreated cells. Dose-response curves were generated from the mean of triplicate determinations, and IC50 values were calculated using GraphPad Prism Software V 6.05 (Advanced Graphics Software).
as §3

The subject of another series is MDA-MB-231-S120. Kind of series: in vitro cytotoxicity, MTS (Table 14). Type of series: cell-based, human. Here is the method:
as §1, §2, §3

A further series deals with MDA-MB-231. The series is described as follows: in vitro cytotoxicity, MTS (Table 14). It counts as cell-based, human. Particulars: Homo sapiens, YHO-13351 2 μM where added. The procedure:
as §1, §2, §3

The target of series [1] is T1, Trop-2 on multiple cell lines (Homo sapiens, UniProt P09758).
T1 construct: endogenous in cells; host or cells: human solid tumour cell lines
T1 sequence (P09758 27-323): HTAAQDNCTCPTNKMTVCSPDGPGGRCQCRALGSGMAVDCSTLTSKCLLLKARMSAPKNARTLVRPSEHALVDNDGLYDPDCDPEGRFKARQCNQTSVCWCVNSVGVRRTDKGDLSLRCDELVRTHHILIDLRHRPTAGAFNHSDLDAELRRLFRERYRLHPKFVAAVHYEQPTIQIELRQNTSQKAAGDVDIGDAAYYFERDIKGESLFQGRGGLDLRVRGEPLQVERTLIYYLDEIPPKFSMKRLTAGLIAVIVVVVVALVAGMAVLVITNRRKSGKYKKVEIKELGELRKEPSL
The series is described as follows: in vitro cell binding. Here is the method:
LumiGLO Chemiluminescent Substrate System (KPL, Gaithersberg, Md.) was used to detect antibody binding to cells. Briefly, cells were plated into a 96 black-well, flat-clear-bottom plate overnight. Antibodies were serially diluted 1:2 and added in triplicate, yielding a concentration range from 0.03 to 66.7 nM. After incubating for 1 h at 4° C., the media was removed and the cells washed with fresh cold media followed by the addition of a 1:20,000 dilution of goat-antihuman horseradish peroxidase-conjugated secondary antibody (Jackson Immunoresearch, West Grove, Pa.) for 1 h at 4° C. The plates were again washed before the addition of the LumiGLO reagent. Plates were read for luminescence using an Envision plate reader (Perkin Elmer, Boston Mass.). Data were analyzed by non-linear regression to determine the equilibrium dissociation constant (KD). Statistical comparisons of KD-values were made with Prism GraphPad Software (v4.03) (Advanced Graphics Software, Inc.; Encinitas, Calif.) using an F-Test on the best-fit curves for the data. Significance was set at P<0.05.

The next series relates to Capan-1 tumors. The series is described as follows: CL2 vs CL2A linker, Capan-1 xenograft. It counts as in vivo, mice. To be noted: 0.2 mg/kg SN-38 twice weekly × 4 weeks. Here is the method:
FIG. 4C. […] Capan-1 mice (N=10) were treated with 0.2 mg/kg ADC and tumors measured weekly.

Another series relates to Calu-3 tumors. Kind of series: Calu-3 xenograft therapy. Type of series: in vivo, nude mice. Particulars: 0.4 mg/kg SN-38.
Series [2] deals with SK-MES-1 human squamous cell lung tumors. Kind of series: SK-MES-1 xenograft therapy. It counts as in vivo, nude mice. To be noted: irinotecan at MTD.
Another series concerns MDA-MB-468 TNBC tumors. The series is described as follows: MDA-MB-468 TNBC xenograft therapy. It counts as in vivo, nude mice. To be noted: one animal each, tumors progressed after irinotecan.
For series [3] the following is noted: monotherapy weekly or once every 3 weeks; cited from earlier work.
Another series is described as follows: in vivo. Particulars: nude, mouse, 773 ug.
The next series concerns COLO 205 tumors. Kind of series: COLO 205 xenograft therapy. To be noted: 24 mg SN-38/kg, q2dx5.
The next series has as its system NCI-N87-S-120 tumors. Kind of series: SN-38-resistant xenograft therapy. To be noted: IMMU-132 0.5 mg twice weekly ×4 weeks; irinotecan 40 mg/kg q2dx5.
A further series has as its system BxPC-3. Kind of series: dsDNA breaks, γH2AX flow cytometry. It counts as cell-based, human. To be noted: 20 μg/ml for 30 min. The procedure: For drug activity testing, BxPC-3 cells were seeded in 6-well plates at 5×10^5 cells/well and held at 37° C. overnight. […] The following morning, cells were trypsinized briefly, spun down, stained with Fixable Viability Stain 450 (BD Biosciences, San Jose, Calif.), washed with 1% BSA-PBS, and then fixed in 4% formalin for 15 min, washed again and permeabilized in 0.15% Triton-X100 in PBS for another 15 min. After washing twice with 1% BSA-PBS, cells were incubated with mouse anti-γH2AX-AF488 (EMD Millipore Corporation, Temecula, Calif.) for 45 min at 4° C. The signal intensity of γH2AX was measured by flow cytometry using a BD FACSCanto (BD Biosciences, San Jose, Calif.).

Another series deals with Capan-1 xenografts. The series is described as follows: combined radioimmunotherapy and ADC, Capan-1 xenograft. It counts as in vivo, nude mice. The source says: The present study examined combinations of ^90Y-hPAM4 IgG with RS7-SN-38 in nude mice bearing 0.35 cm^3 subcutaneous xenografts of the human pancreatic cancer cell line, Capan-1. […] These studies provide the first evidence that combined radioimmunotherapy and ADC enhances efficacy at safe doses.

Sequence of ABCG2 (Q9UNQ0 whole entry): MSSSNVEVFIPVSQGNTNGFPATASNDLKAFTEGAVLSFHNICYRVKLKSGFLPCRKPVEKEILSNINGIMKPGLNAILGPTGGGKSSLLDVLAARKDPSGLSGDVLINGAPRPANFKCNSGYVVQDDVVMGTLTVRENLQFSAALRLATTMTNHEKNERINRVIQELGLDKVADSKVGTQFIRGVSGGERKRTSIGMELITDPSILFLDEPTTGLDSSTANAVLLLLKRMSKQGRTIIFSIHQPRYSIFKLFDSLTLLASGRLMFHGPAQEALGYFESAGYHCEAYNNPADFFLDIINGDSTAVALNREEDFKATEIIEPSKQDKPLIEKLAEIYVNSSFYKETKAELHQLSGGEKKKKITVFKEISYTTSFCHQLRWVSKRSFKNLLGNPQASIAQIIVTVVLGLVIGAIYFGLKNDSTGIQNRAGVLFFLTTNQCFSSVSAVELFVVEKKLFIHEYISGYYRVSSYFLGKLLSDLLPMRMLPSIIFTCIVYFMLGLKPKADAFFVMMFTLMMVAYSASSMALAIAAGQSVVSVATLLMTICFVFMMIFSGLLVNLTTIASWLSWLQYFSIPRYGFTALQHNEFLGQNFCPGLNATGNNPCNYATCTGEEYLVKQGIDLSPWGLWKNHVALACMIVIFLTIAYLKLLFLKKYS

In the case of `COc1ccc2c3c([nH]c2c1)[C@H](C=C(C)C)N1C(=O)[C@@H]2CCCN2C(=O)[C@@H]1C3` [FTC], in the series with NCI-N87-S120, the “effect on SN-38 toxicity in S-120 cells” value is reported as “restored toxicity of SN-38”; the “reversal of SN-38 resistance vs Ko143 and YHO-13351” value (“reversal … vs Ko143 and YHO-13351” below) is reported as “comparable or less potency”. Moreover, the “reduction of intracellular PhA on omission of FTC” value on ABCG2 is listed as “greater than 95%”.

`CC(=O)O[C@H]1C(=O)[C@@]2(C)[C@H]([C@H](OC(=O)c3ccccc3)[C@]3(O)C[C@H](OC(=O)[C@H](O)[C@@H](NC(=O)c4ccccc4)c4ccccc4)C(C)=C1C3(C)C)[C@]1(OC(C)=O)CO[C@@H]1C[C@@H]2O` [Paclitaxel]: the IC50 (commonly the point on the concentration scale where inhibition reaches its midpoint) with NCI-N87 came to 7.9 ± 4 nM; in the series with MDA-MB-231-S120 (Homo sapiens, MDA-MB-231-S120, YHO-13351 2 μM where added), 3.2 ± 0.7 nM; in the series with MDA-MB-231, 2.5 ± 0.1 nM; in the series with NCI-N87-S120 (Homo sapiens, NCI-N87-S120, YHO-13351 2 μM, Ko143 1 μM where added), 8.6 ± 6.5 nM. Further, the “RF (resistance factor)” value with MDA-MB-231-S120 (IC50 mean of MDA-MB-231-S120 / MDA-MB-231) is 1.3; in the series with NCI-N87-S120 (IC50 mean of NCI-N87-S120 / NCI-N87), 1.1.

For the molecule `COc1cc2c(cc1OC)CN(CCc1ccc(NC(=O)c3cccc4c(=O)c5cccc(OC)c5[nH]c34)cc1)CC2` [GF120918], in the series on NCI-N87-S120, the “effect on SN-38 toxicity in S-120 cells” value is “restored toxicity of SN-38”; the “reversal … vs Ko143 and YHO-13351” value is “comparable or less potency”.

In the case of “hRS7-NEM: hRS7 treated with TCEP and conjugated with N-ethylmaleimide [reference compound]”, the KD entry in series [1] is given as “in the sub-nanomolar range”.

`CCc1c2c(nc3ccc(O)cc13)-c1cc3c(c(=O)n1C2)COC(=O)[C@]3(O)CC` [SN-38 (5 min - 2 h)]: the AUC in “FIG. 12” is 3.9 (µg/mL·h).

Take `CCN(CC)CC(=O)OC1CCN(c2ccc(/C=C(\C#N)c3ccc(OC)c(OC)c3)s2)CC1.CS(=O)(=O)O` [YHO-13351]: the “effect on SN-38 toxicity in S-120 cells” value with NCI-N87-S120 is on record as “restored toxicity of SN-38”.

Turning to cyclosporine A, the “reversal … vs Ko143 and YHO-13351” value with NCI-N87-S120 is reported as “comparable or less potency”.

Turning to hRS7-CL2-SN-38, the “mice tumor-free at end of study (day 140)” value in the series with Capan-1 tumors is listed as 40%. The “response at higher dose” value in the series on Calu-3 tumors is recorded as “remained tumor-free until the end of the study on day 147”.

As for `CCc1c2c(nc3ccc(O[C@@H]4O[C@H](C(=O)O)[C@@H](O)[C@H](O)[C@H]4O)cc13)-c1cc3c(c(=O)n1C2)COC(=O)[C@]3(O)CC` [SN-38G (5 min - 6 h)], the AUC in “FIG. 12” is recorded as 11.6 (µg/mL·h).

Consider `CCc1c2c(nc3ccc(OC(=O)N4CCC(N5CCCCC5)CC4)cc13)-c1cc3c(c(=O)n1C2)COC(=O)[C@]3(O)CC` [irinotecan, reference compound], for which, in series [2], the “antitumor effect vs specific conjugate” value is listed as “the same antitumor effects as the specific hRS7-SN-38 conjugate”. Besides, in the series with MDA-MB-468 TNBC tumors, the “decrease in tumor size on re-treatment” value was determined as 23%. Moreover, in series [3], the “grade 3 and 4 neutropenia incidence” value is listed as 14 to 26%. The AUC in the series “in vivo” was determined as 21000 ng·h/mL. The “efficacy at MTD” value in the series on COLO 205 tumors is “as effective as hRS7-CL2-SN-38”. Moreover, in the series with NCI-N87-S-120 tumors, the survival benefit result is reported as “no significant survival benefit”.

With hA20-CL2A-SN-38 [reference compound], in the series with Capan-1 tumors, the “mice tumor-free at end of study (day 140)” value came out at 20%. For the same molecule, the “antitumor effect vs specific conjugate” value in [2] is “the same antitumor effects as the specific hRS7-SN-38 conjugate”. The “Mean Fluorescence Intensity (γH2AX)” value with BxPC-3 is reported as 2246 ± 58. In addition, in the series on BxPC-3 (listed as hA20-SN-38), the “Percent Positive (γH2AX)” value worked out at 12.7 ± 2.4%.

B1: ^90Y-hPAM4 (conjugate, chains of the INN, looked up)
VH: QVQLQQSGAEVKKPGASVKVSCEASGYTFPSYVLHWVKQAPGQGLEWIGYINPYNDGTQYNEKFKGKATLTRDTSINTAYMELSRLRSDDTAVYYCARGFGGSYGFAYWGQGTLVTVSS
VL: DIQLTQSPSSLSASVGDRVTMTCSASSSVSSSYLYWYQQKPGKAPKLWIYSTSNLASGVPARFSGSGSGTDFTLTISSLQPEDSASYFCHQWNRYPYTFGGGTRLEIK
modifications: 90Y radiolabel
As for B1, the “mice tumor-free after 20 weeks” value with Capan-1 xenografts (75 μCi alone) is recorded as 1 of 10. Moreover, the animals tumor-free in the series on Capan-1 xenografts (130 μCi RAIT alone) is recorded as 5 of 10.

B2: hPAM4: unconjugated humanized PAM4 anti-MUC5ac antibody (antibody, chains of the INN, looked up, V domains shown)
VH: B1 VH
VL: B1 VL
In the case of B2, in the series on Capan-1 xenografts (given alone), the “anti-tumor activity of unconjugated antibody” value is “Neither unconjugated hPAM4 nor hRS7 antibodies had anti-tumor activity when given alone”.
